Test results as given in PubChem BioAssay (NCI).
“And” between values parts separate entries of the source, which are not always exact repeats. Equal entries are not always repeated.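 1) Cells in 96-well plates. 2) Compound, 48 h, 5 concentrations. 3) Linear interpolation between surrounding doses. 4) Unreached endpoint = highest concentration. Abbreviation: GI50, concentration required for 50% inhibition of growth. At the TGI there is no net growth.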

How the values were obtained:
Experiment in all cases: NCI-60 cell line screen, 48 h
BT-549 breast = tested on: BT-549 breast
MCF7 breast = tested on: MCF7 breast
MDA-MB-231 breast = tested on: MDA-MB-231 breast
PC-3 prostate = tested on: PC-3 prostate
NCI-H226 lung = tested on: NCI-H226 lung
NCI/ADR-RES ovarian = tested on: NCI/ADR-RES ovarian
MDA-MB-435 = tested on: MDA-MB-435
UACC-257 melanoma = tested on: UACC-257 melanoma
T-47D breast = tested on: T-47D breast
HOP-92 NSCLC = tested on: HOP-92 NSCLC
DU-145 prostate = tested on: DU-145 prostate
NCI-H23 lung = tested on: NCI-H23 lung
HS 578T breast = tested on: HS 578T breast

C/C=C/CC(C)C(O)C1C(=O)NC(CC)C(=O)N(C)CC(=O)N(C)C(CC(C)C)C(=O)NC(C(C)C)C(=O)N(C)C(CC(C)C)C(=O)NC(C)C(=O)NC(C)C(=O)N(C)C(CC(C)C)C(=O)N(C)C(CC(C)C)C(=O)N(C)C(C(C)C)C(=O)N1C (stereo unspecified)
GI50 (BT-549 breast): 2.02 µM
TGI (BT-549 breast): 6.92 µM
GI50 (MCF7 breast): 2.71 µM
TGI (MCF7 breast): > 32.5 µM
GI50 (MDA-MB-231 breast): 3.79 µM
TGI (MDA-MB-231 breast): 9.57 µM
GI50 (PC-3 prostate): 0.97 µM
TGI (PC-3 prostate): > 32.5 µM
GI50 (NCI-H226 lung): 2.29 µM
TGI (NCI-H226 lung): 6.66 µM and 13.8 µM
GI50 (NCI/ADR-RES ovarian): 1.44 µM
TGI (NCI/ADR-RES ovarian): > 32.5 µM
GI50 (MDA-MB-435): 0.609 µM
TGI (MDA-MB-435): 4.62 µM
GI50 (UACC-257 melanoma): 0.747 µM
TGI (UACC-257 melanoma): 5.57 µM and 8.67 µM
GI50 (T-47D breast): 0.842 µM
TGI (T-47D breast): 5.32 µM
GI50 (HOP-92 NSCLC): 1.09 µM
TGI (HOP-92 NSCLC): 9.02 µM and 14.8 µM
GI50 (DU-145 prostate): 1.43 µM
TGI (DU-145 prostate): > 32.5 µM
GI50 (NCI-H23 lung): 1.2 µM
TGI (NCI-H23 lung): > 32.5 µM and 28.6 µM
GI50 (HS 578T breast): 3.36 µM
TGI (HS 578T breast): 28.2 µM
